# Assay results reported in US20260053765A1, “COMPOSITIONS AND METHODS FOR THE IMPROVEMENT OF MEMORY” (THE CHILDREN'S HOSPITAL OF PHILADELPHIA, priority 2016, published 2026).
# Assays:
# [1] = tested on: fluid percussion injury mice; test: Conditioned fear response (CFR) after fluid percussion injury, GTA by oral gavage; assay type: in vivo, mouse; conditions: 5 mg/kg GTA oral gavage for 5 days, CFR on day 7
# Protocol: A fluid percussion injury assay was performed. Briefly, a craniotomy was performed on anesthetized mice using a 3 mm trephine and a Luer-Hoc needle hub attached to the skull and capped. The following day, a fluid percussion injury device was employed to deliver a pulse of saline through the hub at a pressure between 1.4-2.14 atm, producing a mild to moderate percussion injury. Sham animals received all anesthesia and surgical procedures except for the fluid pulse.
# Mice were allowed to recover for one day. Mice were then treated with 5 mg/kg of glyceryl triacetate (GTA) via oral gavage for 5 days. The conditioned fear response (CFR) assay was performed on day 7.
# [2] = within one hour of administration; cited from earlier work
smiles,measurement,setting,value
"CC(=O)OCC(COC(C)=O)OC(C)=O [GTA, glyceryl triacetate]",conditioned fear response (freezing),[1],showed a similar fear response to sham animals and a statistically superior (P<0.05) response to those mice receiving the brain injury without treatment
same,increase of acetate levels in the brain,[2],over 15 fold
